Calls of active or inactive are those of the source. No cut-off for these calls is given here.
Tests used:
[1] = Dissociation constant, pKa of the compound for first ionization at 10 uM by fluorescence analysis; assay type: physicochemical
[2] = Dissociation constant, pKa of the compound in D2O for first ionization at 1 mM by H1-NMR analysis; assay type: physicochemical
[3] = Dissociation constant, pKa of the compound in D2O for second ionization at 1 mM by H1-NMR analysis; assay type: physicochemical
[4] = species: Bos taurus; test: Binding affinity to calf thymus DNA assessed as binding constant at 15 uM and pH 6 by UV-spectroscopic analysis
[5] = species: Bos taurus; test: Binding affinity to calf thymus DNA assessed as binding constant at 15 uM and pH 7 by UV-spectroscopic analysis
[6] = species: Bos taurus; test: Binding affinity to calf thymus DNA assessed as binding constant at 15 uM and pH 8 by UV-spectroscopic analysis
[7] = Displacement of ethidium bromide from DNA (unknown origin) assessed as Stem-Volmer quenching constant at pH 6 by UV-spectroscopic analysis; set-up: unit not given here
[8] = Displacement of ethidium bromide from DNA (unknown origin) assessed as Stem-Volmer quenching constant at pH 7 by UV-spectroscopic analysis; set-up: unit not given here
[9] = Displacement of ethidium bromide from DNA (unknown origin) assessed as Stem-Volmer quenching constant at pH 8 by UV-spectroscopic analysis; set-up: unit not given here
[10] = species: Bos taurus; test: Ratio of binding affinity to calf thymus DNA at pH 8 to binding affinity to calf thymus DNA at pH 6
[11] = test system: Escherichia coli; test: Induction of Escherichia coli supercoiled pBR322 plasmid DNA photocleavage at 15 uM and pH 6 to 8 measured after 1 hr of UV-irradiation by densitometric analysis
[12] = test system: Escherichia coli; test: Induction of Escherichia coli supercoiled pBR322 plasmid DNA photocleavage assessed as single stranded break formation per molecule at pH 6 at 15 uM measured after 4 mins of UV-irradiation by densitometric analysis
[13] = test system: Escherichia coli; test: Induction of Escherichia coli supercoiled pBR322 plasmid DNA photocleavage assessed as single stranded break formation per molecule at pH 6 at 15 uM measured after 6 mins of UV-irradiation by densitometric analysis
[14] = test system: Escherichia coli; test: Induction of Escherichia coli supercoiled pBR322 plasmid DNA photocleavage assessed as single stranded break formation per molecule at pH 6 at 15 uM measured after 8 mins of UV-irradiation by densitometric analysis
[15] = test system: Escherichia coli; test: Induction of Escherichia coli supercoiled pBR322 plasmid DNA photocleavage assessed as double stranded break formation per molecule at pH 6 at 15 uM measured after 4 mins of UV-irradiation by densitometric analysis
[16] = test system: Escherichia coli; test: Induction of Escherichia coli supercoiled pBR322 plasmid DNA photocleavage assessed as double stranded break formation per molecule at pH 6 at 15 uM measured after 6 mins of UV-irradiation by densitometric analysis
[17] = test system: Escherichia coli; test: Induction of Escherichia coli supercoiled pBR322 plasmid DNA photocleavage assessed as double stranded break formation per molecule at pH 6 at 15 uM measured after 8 mins of UV-irradiation by densitometric analysis
[18] = test system: Escherichia coli; test: Induction of Escherichia coli supercoiled pBR322 plasmid DNA photocleavage assessed as ratio of single stranded break to double stranded break formation per molecule at pH 6 at 15 uM measured after 6 mins of UV-irradiation by densitometric analysis
[19] = test system: Escherichia coli; test: Induction of Escherichia coli supercoiled pBR322 plasmid DNA photocleavage assessed as ratio of single stranded break to double stranded break formation per molecule at pH 6 at 15 uM measured after 8 mins of UV-irradiation by densitometric analysis
[20] = test system: Escherichia coli; test: Induction of Escherichia coli supercoiled pBR322 plasmid DNA photocleavage at 15 uM and pH 6 in presence of NaN3 by densitometric analysis
[21] = test system: Escherichia coli; test: Induction of Escherichia coli supercoiled pBR322 plasmid DNA photocleavage at 15 uM and pH 6 in presence of DMSO by densitometric analysis
[22] = test system: Escherichia coli; test: Induction of Escherichia coli supercoiled pBR322 plasmid DNA photocleavage at 15 uM and pH 6 in presence of glycerol by densitometric analysis
[23] = Dissociation constant, pKa of the compound for second ionization at 10 uM by fluorescence analysis; assay type: physicochemical
[24] = test system: A-375; test: Induction of DNA damage in human A375 cells assessed as abasic site formation at 3 uM preincubated for 1 hr followed by UV-irradiation for 2 hrs; assay type: functional
[25] = test system: A-375; test: Induction of DNA damage in human A375 cells assessed as abasic site formation at 3 uM preincubated for 1 hr followed by UV-irradiation for 2 hrs relative to control; assay type: functional
[26] = test system: Escherichia coli; test: Induction of Escherichia coli supercoiled pBR322 plasmid DNA photocleavage assessed as ratio of single stranded break to double stranded break formation per molecule at pH 6 at 15 uM measured after 4 mins of UV-irradiation by densitometric analysis

pKa at 10 µM [1]	pKa at 1000 µM [2]	pKa at 1000 µM [3]	Kb [4]	Kb [5]	Kb [6]	KSV [7]	KSV [8]	KSV [9]	Ratio [10]	Activity [11]	Activity [12]	Activity [13]	Activity [14]	Activity [15]	Activity [16]	Activity [17]	Ratio [18]	Ratio [19]	Activity [21]	Compound	other results
7.3			10400	16800	18000	26	9.2	5.7	1.7		0.7	0.8	0.9	0	0.15	0.2	5.3	4.3	Active	N[C@@H](Cc1c[nH]c2ccccc12)C(=O)NCCCC[C@H](N)C(=O)Nc1ccc(C#Cc2c(F)c(F)nc(F)c2F)cc1	Activity [20]: Active; Activity [22]: Active
7	7.2	7.7	2830	10500	15000	7	4.4	1.5	> 4										Active	NCC(=O)NCCC[C@H](N)C(=O)Nc1ccc(C#Cc2c(F)c(F)nc(F)c2F)cc1	Activity [20]: Active; Activity [22]: Active
6.3			22300	14600	23300	9.4	5.9	2.6	1.1											N[C@@H](Cc1ccccc1)C(=O)NC[C@H](N)C(=O)Nc1ccc(C#Cc2c(F)c(F)nc(F)c2F)cc1	pKa at 10 µM [23]: 7.8
7.3	7.3	7.4	2890	8890	30300	6.8	5.7	3.4	10.5		0.6	1.7	1.9	0.07	0.19	0.29	9.1	6.6		C[C@H](N)C(=O)NCCCC[C@H](N)C(=O)Nc1ccc(C#Cc2c(F)c(F)nc(F)c2F)cc1	Ratio [26]: 9.4

The next lines start with the compound.

Compound	pKa at 10 µM [1]	pKa at 1000 µM [2]	pKa at 1000 µM [3]	Kb [4]	Kb [5]	Kb [6]	KSV [7]	KSV [8]	KSV [9]	Ratio [10]	Activity [11]	Activity [12]	Activity [13]	Activity [14]	Activity [15]	Activity [16]	Activity [17]	Ratio [18]	Ratio [19]	Activity [21]	other results
C[C@H](N)C(=O)NCCC[C@H](N)C(=O)Nc1ccc(C#Cc2c(F)c(F)nc(F)c2F)cc1	6.6	7	7.8	4440	6750	20200	11.1	7.8	5.2	4.6	Active										
C[C@H](N)C(=O)NC[C@H](N)C(=O)Nc1ccc(C#Cc2c(F)c(F)nc(F)c2F)cc1	5.5			5850	15000	20500	9	4.9	3.1	3.5	Active										pKa at 10 µM [23]: 8.1
N[C@@H](Cc1ccccc1)C(=O)NCCC[C@H](N)C(=O)Nc1ccc(C#Cc2c(F)c(F)nc(F)c2F)cc1	7.1	7.2	7.2	10700	12700	32100	27.8	23.6	6.3	3	Active									Active	
N[C@@H](Cc1ccccc1)C(=O)NCCCC[C@H](N)C(=O)Nc1ccc(C#Cc2c(F)c(F)nc(F)c2F)cc1	7.3	6.6	6.7	11700	13100	66700	27.8	9.2	6.7	5.7		0.7	1	1.7	0	0.13	0.21	8.04	8		Activity [24]: 17; fold change (FC) [25]: 2

Source: ChEMBL document CHEMBL3853324, “Optimizing Protonation States for Selective Double-Strand DNA Photocleavage in Hypoxic Tumors: pH-Gated Transitions of Lysine Dipeptides” (J Med Chem, 2016)
